From patent US5986103A, “2-alkyl-1H-imidazole-5-carboxylic acids” (Hoechst Marion Roussel, priority 1995, dated 1999)

Columns and labels:
Endothelin = test: Antagonistic activity of endothelin in a demedullated rat (inhibition of increase in arterial pressure induced by endothelin); format: in vivo, Male Sprague-Dawley rats; details: product 10 mg/kg injected (pudendal vein) 10 minutes before endothelin
Protocol: 3) Test for Antagonistic Activity of Endothelin in a Demedullated Rat
Male Sprague-Dawley rats (250 to 350 g) are anaesthetized (sodium pentobarbital 60 mg/kg injected by intraperitoneal route). The animal is placed under assisted respiration and a bilateral section of the vagus nerves is carried out. The rat is then demedullated.
The average arterial pressure is recorded with a heparin catheter (PE50) introduced into the carotid of the animal and connected via a pressure sensor and an amplifier to a recorder (Gould pressure processor). A catheter is implanted in the pudendal vein in order to allow injection of the molecules to be studied. After a stabilization period (about 15 minutes), the product or the solvent is injected 10 minutes before a range of increasing doses of endothelin which are injected every 2 minutes (0.1-0.3-1-3-10 ug/kg).
The antagonistic activity of the products is estimated by the percentage inhibition of the increase in pressure induced by endothelin at doses of 3 and 10 ug/kg.

Endothelin A receptor = molecular target: T1, Endothelin A receptor (Rattus norvegicus, UniProt P26684); test: Affinity for the Endothelin A receptor: displacement of 125I endothelin from rat heart (ventricles) membrane preparation; format: binding; details: rat heart (ventricles) membranes, 25° C. for 60 minutes, pH 7.4, read-out: Endothelin A receptor IC50 in nanomoles
T1 construct: A membrane preparation is prepared from the heart (ventricles) of a rat; from tissue; host or cells: rat heart ventricles, membrane preparation
T1 sequence (P26684 21-426): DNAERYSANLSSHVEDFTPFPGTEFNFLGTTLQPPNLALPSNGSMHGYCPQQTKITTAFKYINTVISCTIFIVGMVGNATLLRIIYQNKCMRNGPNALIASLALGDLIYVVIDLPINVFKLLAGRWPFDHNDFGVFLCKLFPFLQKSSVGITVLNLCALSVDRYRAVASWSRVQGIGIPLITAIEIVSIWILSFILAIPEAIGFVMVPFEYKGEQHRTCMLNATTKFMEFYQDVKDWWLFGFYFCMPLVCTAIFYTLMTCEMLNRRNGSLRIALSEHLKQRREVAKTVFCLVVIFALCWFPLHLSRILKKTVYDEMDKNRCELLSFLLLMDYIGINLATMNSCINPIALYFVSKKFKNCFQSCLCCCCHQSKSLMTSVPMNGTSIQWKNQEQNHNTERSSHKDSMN
Protocol: 1) Study of the Affinity for the Endothelin A Receptor
A membrane preparation is prepared from the heart (ventricles) of a rat. The tissue is ground up in a POLYTRON in a 50 mM Tris buffer pH=7.4.
After 30 minutes at 25° C. (W.B.) the homogenate is centrifuged at 30,000 g for 15 minutes (2 centrifugations with intermediate take-up in the Tris buffer pH. 7.4).
The pellets are suspended in an incubation buffer (25 mM Tris, 5 microg/ml pepstatin A, 3 microg/ml aprotinin, 0.1 mM PMSF, 3 mM EDTA, 1 mM EGTA pH 7.4).
(§1) 2 ml aliquoted fractions are distributed in hemolysis tubes and ^125 I endothelin (approximately 50,000 dpm/tube) and the product to be studied are added. (The product is first tested at 3×10^-5 M three times). When the tested product displaces more than 50% of radioactivity specifically bound to the receptor, it is tested again according to a range of 7 concentrations in order to determine the concentration which inhibits by 50% the radioactivity specifically bound to the receptor. In this way the 50% inhibitory concentration is determined.
(§2) The non-specific bond is determined by the addition of endothelin at 10^-6 M (three times). After incubation at 25° C. for 60 minutes, replacing in a water-bath at 0° C. for 5 minutes, filtration under reduced pressure and rinsing with Tris buffer pH 7.4, the radioactivity is counted in the presence of scintillating Triton. […]

Endothelin B receptor = molecular target: T2, Endothelin B receptor (Rattus norvegicus, UniProt P21451); test: Affinity for the Endothelin B receptor: displacement of 125I endothelin from rat cortex plus cerebellum membrane preparation; format: binding; details: rat rear cortex plus cerebellum membranes, 25° C. for 60 minutes, pH 7.4, read-out: Endothelin B receptor IC50 in nanomoles
T2 construct: A membrane preparation is prepared from the rear cortex plus the cerebellum of a rat; from tissue; host or cells: rat rear cortex plus cerebellum, membrane preparation
T2 sequence (P21451 27-442): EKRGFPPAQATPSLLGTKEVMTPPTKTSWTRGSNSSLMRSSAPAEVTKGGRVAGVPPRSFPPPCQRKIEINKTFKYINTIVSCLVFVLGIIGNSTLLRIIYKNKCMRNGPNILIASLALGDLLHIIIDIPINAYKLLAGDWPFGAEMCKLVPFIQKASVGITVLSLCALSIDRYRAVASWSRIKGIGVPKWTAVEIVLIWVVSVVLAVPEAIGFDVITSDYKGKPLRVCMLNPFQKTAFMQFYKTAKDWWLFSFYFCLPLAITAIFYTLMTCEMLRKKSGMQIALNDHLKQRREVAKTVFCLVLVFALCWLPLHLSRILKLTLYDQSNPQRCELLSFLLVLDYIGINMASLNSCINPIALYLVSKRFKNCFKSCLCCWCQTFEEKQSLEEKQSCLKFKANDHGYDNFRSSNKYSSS
Protocol: 2) Study of the Affinity for the Endothelin B Receptor
A membrane preparation is prepared from the rear cortex plus the cerebellum of a rat. The tissue is ground up in a POLYTRON in a 50 mM Tris buffer pH=7.4.
After 30 minutes at 250C (W.B.) the homogenate is centrifuged at 30,000 g for 15 minutes (2 centrifugations with intermediate take-up in the Tris buffer pH. 7.4).
The pellets are suspended in an incubation buffer (25 mM Tris, 5 microg/ml pepstatin A, 3 microg/ml aprotinin, 0.1 mM PMSF, 3mM EDTA, 1 mM EGTA pH 7.4).
as §1, with “tubes and 125I endothelin (approximately” for “tubes and ^125 I endothelin (approximately”, “50% of the radioactivity specifically” for “50% of radioactivity specifically”
as §2

Row | Compound | % inhibition of vasoconstriction Et1 3 μg/kg (Endothelin) | % inhibition of vasoconstriction Et1 10 μg/kg (Endothelin) | IC50 (Endothelin A receptor) | IC50 (Endothelin B receptor)
1 | CC(C)c1nc(Sc2ccc(CCC(=O)O)cc2)c(C(=O)O)n1Cc1cc2c(cc1Cl)OCO2 [Example 3, 4-((4-(2-carboxyethyl)phenyl)thio)-1-((6-chloro-1,3-benzodioxol-5-yl)methyl)-2-(1-methylethyl)-1H-imidazole-5-carboxylic acid] | +7% | -31% | 2.5 nM | 78.4 nM
2 | CCCc1nc(Sc2ccc(OCC(=O)O)cc2)c(C(=O)O)n1Cc1cc2c(cc1Cl)OCO2 [Example 1, 4-((4-(carboxymethoxy)phenyl)thio)-1-((6-chloro-1,3-benzodioxol5-yl)methyl)2-propyl1H-imidazole5-carboxylic acid] | -52% | -50% | 2.5 nM | 88.5 nM
